Source: patent publication US12215109B2, “Crystal of pyrazolo[3,4-d]pyrimidine” (TAIHO PHARMACEUTICAL CO., LTD., priority 2018, dated 2025)

Columns and labels:
Assay type in all cases: physicochemical
[1] = Thermal stability test (X-ray powder diffraction under heating); conditions: XRPD at 25° C., 50° C., elevated to 200° C., then lowered to 25° C.
Description: A thermal stability test was conducted on Crystal I and Crystal III obtained in Example and Comparative Example described above. Crystal II was not reproduced, and it was not possible to conduct a thermal stability test.
X-ray powder diffraction measurement was performed at 25° C., and the temperature was elevated to 50° C. over 30 minutes, followed by performing X-ray powder diffraction measurement. The temperature was further elevated to 200° C. at 10° C./10 min, followed by performing X-ray powder diffraction measurement, then the temperature was lowered to 25° C. over 30 minutes, followed by performing X-ray powder diffraction measurement.

[2] = Dynamic moisture absorption/desorption test; conditions: 25° C., humidity 5% RH to 95% RH and back to 5% RH
Description: In the test, VTI-SA+(TA Instruments) was used. About 10 mg of crystal I was weighed, and put into a pan. The temperature was elevated at a rate of 1 degree per minute to 60° C. while observing the weight variation per 5 minutes of 0.0100% or less. When the weight varied, this temperature was maintained for a maximum of 5 hours, followed by starting the next step. Thereafter, the temperature was cooled to 25° C., and the humidity was increased from 5% RH to 95% RH, and then decreased to 5% RH. Here, the humidity was increased in increments of 5% RH while observing the weight variation per 5 minutes of 0.00100% or less. When the weight varied, this humidity was maintained for a maximum of 2 hours, followed by starting the next step.

[3] = Solid stability test (storage stability; XRPD, HPLC related substances, appearance); conditions: for Related substances: HPLC
Description: The storage stability of Crystal I obtained in Example above was examined under the following conditions. • Storage conditions: 40° C./[…] (open system and closed system), 60° C. (closed system), light shielding • Measurement point: 1 month • Storage amount: about 50 mg • Storage container: Brown glass bottle
X-ray powder diffraction measurement of the sample after storage was performed by the above-described method. For a change in mass of related substances (amount of detected substances other than Compound (I)), about 1 mg of the sample was weighed, and dissolved in about 5 mL of a water/acetonitrile mixed liquid (1:1), and 5 μL of the liquid was accurately measured and taken, and analyzed by HPLC in accordance with the following method. • Column: InertSustain C18 HP, 4.6×150 mm, 3 μm • Column temperature: 40° C. • Column flow rate: 0.8 mL/min • Mobile phase: A: 10 mM phosphate buffer (pH 6.8)/acetonitrile (17:3) and B: acetonitrile/methanol (17:3) • Detection UV: 220 nm • Gradient: […]

[4] = 40° C./75% RH (closed system), 1 month
[5] = 40° C./75% RH (open system), 1 month
[6] = 60° C. (closed system), 1 month
[7] = Light shielding (1,200,000 lx · hr)

change in crystal form under heating [1]	hygroscopicity (moisture absorption/desorption isothermal line) [2]	Appearance [3, 4]	Related substances [3, 4]	Appearance [3, 5]	Related substances [3, 5]	Appearance [3, 6]	Related substances [3, 6]	Appearance [3, 7]	Related substances [3, 7]	Structure (SMILES)	change in X-ray powder diffraction pattern after storage ([3]; storage 1 month, 40° C./75° RH (open and closed system), 60° C. (closed system), light shielding)
no change in crystal form	non-hygroscopic	No change	<0.1%	No change	<0.1%	No change	<0.1%	No change	<0.1%	C=CC(=O)N1CCC[C@@H](n2nc(C(=O)Nc3ccc(CC(=O)N(C)C)c(C)c3C)c3c(N)ncnc32)C1 [Crystal I, (R)-1-(1-acryloylpiperidin-3-yl)-4-amino-N-(4-(2-(dimethylamino)-2-oxoethyl)-2,3-dimethylphenyl)-1H-pyrazolo[3,4-d]pyrimidine-3-carboxamide]	no change in X-ray powder diffraction pattern
changed by heating	–	–	–	–	–	–	–	–	–	C=CC(=O)N1CCC[C@@H](n2nc(C(=O)Nc3ccc(CC(=O)N(C)C)c(C)c3C)c3c(N)ncnc32)C1 [Crystal III, (R)-1-(1-acryloylpiperidin-3-yl)-4-amino-N-(4-(2-(dimethylamino)-2-oxoethyl)-2,3-dimethylphenyl)-1H-pyrazolo[3,4-d]pyrimidine-3-carboxamide]	–
